Data taken from article PMC10671849, “Synthesis and Evaluation of Marine-Inspired Compounds Result in Hybrids with Antitrypanosomal and Antileishmanial Activities” (Marine Drugs, 2023).
In brackets after ≈: the same amount, converted by molar mass. Read-outs that look alike come from different tables or passages of the source.

Columns and labels:
Assay type in all cases: cell-based
[1] = test system: Escherichia coli ATCC 25922; test: Antibacterial broth microdilution (CLSI M100-S25), MIC/MLC
Method: (§1) All tested compounds (9a–9d, 10a–10c, 13, 14, and eugenol (1)) were prepared in DMSO (Sigma-Aldrich, St. Louis, MO, USA) at a concentration of 10 mg/mL. The reference drugs used (voriconazole (Sigma-Aldrich, St. Louis, MO, USA) for fungi and quality control; gentamicin (Sigma-Aldrich, St. Louis, MO, USA) for bacterial and quality control) were prepared at 6.4 mg/mL. The stock solutions of the compounds were stored at –20 °C until immediately before the assays and then were diluted in fresh culture medium, RPMI-1640 medium (Biochrom AG, Berlin, Germany) buffered with 3-(N-morpholino)propanesulfonic acid (MOPS—Sigma-Aldrich, St. Louis, MO, USA) for fungi and cation-adjusted Mueller–Hinton broth (MHBII—Becton Dickinson, France) for bacteria, henceforth referred to as RPMI and MHB, respectively.
(§2) Fungal strains, including reference strains and clinical isolates, were used for the study of the antifungal activity: a yeast reference strain from American Type Culture Collection (ATCC), Candida albicans ATCC 10231; filamentous fungi reference strain Aspergillus fumigatus ATCC 240305; and a clinical isolate of dermatophytes Trichophyton rubrum FF5. Candida krusei ATCC 6258 was used as a quality control. All fungal strains were stored in Sabouraud dextrose broth (SDB—Bio-Mèrieux, Marcy L’Etoile, France) with glycerol (20%) at −80 °C and were subcultured in Sabouraud dextrose agar (SDA—Bio-Mèrieux, Marcy L’Etoile, France) for 24–72 h (yeasts and A. fumigatus) or 5–7 days (T. rubrum) before each assay to obtain optimal growth and purity conditions. Two bacteria strains were used, one Gram positive and one Gram negative: Staphylococcus aureus ATCC 25923 and Escherichia coli ATCC 25922, respectively. The bacterial strains were stored in trypticase soy broth (TSB—Biolife, Milan, Italy) with glycerol (10%) at −80 °C and subcultured in Mueller–Hinton agar (MHA—Bio-Mèrieux, Marcy L’Etoile, France) for 24 h before each assay.
(§3) For bacteria, MICs were determined by the broth microdilution method, following the recommendations of the reference method M100-S25 [29].
(§4) Similarly, as previous described, two-fold serial dilutions of each stock solution were prepared using MHB to obtain a range of test concentrations from 16 to 512 μg/mL. Bacterial cell suspensions were prepared from 24-h cultures in saline solution, and the transmittance of cell density was adjusted to 0.5 McFarland standard. Dilutions were performed using MHB to obtain cell final concentrations in the plate of 0.5–2.5 × 10^4 CFU/mL.
(§5) Plates with the prepared serial dilutions of the tested compounds were inoculated with the same volume of the bacterial suspension, and sterility, growth and DMSO controls were included in each assay. Immediately thereafter, the plates were incubated in a humid atmosphere (aerobic environment) for 18–24 h at 36 °C.
(§6) MIC values were considered the minimum concentrations that inhibited the bacterial growth by 100% compared to the growth control. The reference drug, gentamicin, was tested as a quality control, and the results were according to the norms.
(§7) A volume of 10 μL of suspension was collected from wells corresponding to the MIC and the highest following concentration and was deposited in MHA plates. The plates were incubated for 24 h at 36 °C, and the MLC was determined as the lowest concentration at which no bacterial growth was observed.

[2] = test system: Staphylococcus aureus ATCC 25923; test: as above
Method: as §1, §2, §3, §4, §5, §6, §7

[3] = Cytotoxicity MTT assay on PMA-differentiated THP-1 macrophages; conditions: human; PMA-differentiated THP-1 macrophages, 72 h, MTT; 100 to 12.5 µM tested; read-out: Cytotoxicity CC50 (µM) 95% CI, THP-1
Method: A human leukemia cell line, THP-1 (ATCC® TIB-202™), was cultured in RPMI-1640 medium supplemented with 10% heat-inactivated fetal bovine serum (FBS), 2 mM L-glutamine, 100 IU/mL penicillin/streptomycin, and 20 mM HEPES. The cell line was maintained in a humidified incubator at 37 °C and 5% CO2 by subculture every 3 days in 20 mL of media at a concentration of 2 × 10^5/mL in a T75 flask. All cell culture reagents were purchased from Lonza-Bioscience (Morrisville, NC, USA).
The cytotoxicity effect of compounds on THP-1-derived macrophages was assessed by colorimetric MTT assay (3-(4,5-dimethylthiazol-2-yl)-2,5-diphenyl tetrazolium bromide). Briefly, THP-1 cells were suspended in RPMI complete medium at a density of 1 × 10^6 cells/mL and 100 μL/well and were seeded in a 96-well plate and differentiated into macrophages by addition of 40 ng/mL of phorbol-myristate 13-acetate (PMA, Sigma, Saint Louis, MI, USA) for 24 h, followed by replacement with fresh medium for 24 more h. Subsequently, the cells were incubated with 100 μL of compounds ranging from 100 to 12.5 μM after dilution in the RPMI complete medium. Each condition was carried out in quadruplicate. After 72 h of incubation at 37 °C and 5% CO2, the medium was removed, and 200 μL of 0.5 mg/mL MTT solution diluted in RPMI was added. The plates were incubated for an additional 4 h. Then, 160 μL of media was removed, and the same volume of 2-propanol was added. Absorbance was read at 570 nm using a Synergy 2 Multi-Mode Reader (Biotek, Winooski, VT, USA). Cytotoxicity was evaluated by the determination of the CC50 value (drug concentration that reduced the percentage of viable cells by 50%) and calculated by non-linear regression analysis using GraphPad Prism software, version 8.1.1 for Windows (GraphPad Software, San Diego, CA, USA). The results represent the average of at least three independent experiments. For each compound, the selectivity index (SI) was calculated as the ratio between cytotoxicity in THP-1 (CC50, 72 h) and activity against parasites (IC50, 72 h).

[4] = ATCC25922, broth microdilution, 16 to 512 µg/mL, 18–24 h at 36 °C, read-out: MIC E. coli
[5] = ATCC25923, broth microdilution, 16 to 512 µg/mL, 18–24 h at 36 °C, read-out: MIC S. aureus

Structure (SMILES) | MIC [1, 4] [µg/mL] | MIC [2, 5] [µg/mL] | MIC ([1]; ATCC25922, second value printed after the MIC of the preceding sentence, read-out: MIC E. coli ("the only MIC evaluated")) [µg/mL] | MIC ([2]; ATCC25923, second value printed after the MIC of the preceding sentence, read-out: MIC S. aureus ("the only MIC evaluated")) [µg/mL] | CC50 at 72 h [3] [µM]
C=CCc1ccc(O)c(OC)c1 [Eugenol, eugenol, reference compound] | > 512 | > 512 | – | – | > 100
C=CCc1cc(Cn2cc(-c3nc4ccccc4c(=O)o3)nn2)c(O)c(OC)c1 [compound 14, 2-(1-(5-allyl-2-hydroxy-3-methoxybenzyl)-1H-1,2,3-triazol-4-yl)-4H-benzo[d][1,3]oxazin-4-one] | > 512 | > 512 | – | – | > 100
C=CCc1ccc(OCc2cn(CC(=O)Nc3ccccc3C(=O)O)nn2)c(OC)c1 [compound 13, 2-(2-(4-((4-allyl-2-methoxyphenoxy)methyl)-1H-1,2,3-triazol-1-yl)acetamido) benzoic acid] | > 512 | > 512 | – | – | > 100

Continued, in another order:

MIC [1, 4] [µg/mL] | MIC [2, 5] [µg/mL] | MIC ([1]; ATCC25922, second value printed after the MIC of the preceding sentence, read-out: MIC E. coli ("the only MIC evaluated")) [µg/mL] | MIC ([2]; ATCC25923, second value printed after the MIC of the preceding sentence, read-out: MIC S. aureus ("the only MIC evaluated")) [µg/mL] | Structure (SMILES) | CC50 at 72 h [3] [µM]
> 512 | > 512 | – | – | C=CCc1cc(Cn2cc(C(=O)Nc3ccccc3C(N)=O)nn2)c(O)c(OC)c1 [9a, 1-(5-allyl-2-hydroxy-3-methoxybenzyl)-N-(2-carbamoylphenyl)-1H-1,2,3-triazole-4-carboxamide] | > 100
> 512 | > 512 | – | – | C=CCc1cc(Cn2cc(C(=O)Nc3ccc(OC)cc3C(N)=O)nn2)c(O)c(OC)c1 [9b, 1-(5-allyl-2-hydroxy-3-methoxybenzyl)-N-(2-carbamoyl-4-methoxyphenyl)-1H-1,2,3-triazole-4-carboxamide] | > 100
> 512 | > 512 | – | – | C=CCc1cc(Cn2cc(-c3nc4ccc(OC)cc4c(=O)[nH]3)nn2)c(O)c(OC)c1 [10b, 2-(1-(5-allyl-2-hydroxy-3-methoxybenzyl)-1H-1,2,3-triazol-4-yl)-6-methoxyquinazolin-4(3H)-one] | > 100
> 512 | > 512 | – | – | C=CCc1cc(Cn2cc(-c3nc4ccccc4c(=O)[nH]3)nn2)c(O)c(OC)c1 [10a, 2-(1-(5-allyl-2-hydroxy-3-methoxybenzyl)-1H-1,2,3-triazol-4-yl)quinazolin-4(3H)-one] | > 100
> 512 | > 512 | – | – | C=CCc1cc(Cn2cc(C(=O)Nc3ccc(Cl)cc3C(N)=O)nn2)c(O)c(OC)c1 [9d, 1-(5-allyl-2-hydroxy-3-methoxybenzyl)-N-(2-carbamoyl-4-chlorophenyl)-1H-1,2,3-triazole-4-carboxamide] | > 100
256 to 512 (≈ 602 to 1200 µM) | 256 (≈ 602 µM) | > 512 | ≤ 512 | C=CCc1cc(Cn2cc(C(=O)Nc3ccc(F)cc3C(N)=O)nn2)c(O)c(OC)c1 [9c, 1-(5-allyl-2-hydroxy-3-methoxybenzyl)-N-(2-carbamoyl-4-fluorophenyl)-1H-1,2,3-triazole-4-carboxamide] | 45.8
> 512 | > 512 | – | – | C=CCc1cc(Cn2cc(-c3nc4ccc(F)cc4c(=O)[nH]3)nn2)c(O)c(OC)c1 [10c, 2-(1-(5-allyl-2-hydroxy-3-methoxybenzyl)-1H-1,2,3-triazol-4-yl)-6-fluoroquinazolin-4(3H)-one] | > 100
